For 25 compounds, IC50 results are on record in patent US20240343704A1, “HALO-SUBSTITUTED AMINO PYRIDINE COMPOUNDS AS INHIBITORS OF THE HAEMATOPOIETIC PROGENITOR KINASE 1 (HPK1)” (priority 2021, published 2024).

A word on the IC50: it is the concentration that gives 50% inhibition.

Some results are limits rather than exact numbers.

Test [1] addresses T1, Recombinant (1-346) HPK1 (h) (Homo sapiens, UniProt Q92918).
T1 construct: Recombinant (1-346) HPK1 (h) is incubated with 8 mM MOPS pH 7.0
T1 sequence (Q92918 1-346): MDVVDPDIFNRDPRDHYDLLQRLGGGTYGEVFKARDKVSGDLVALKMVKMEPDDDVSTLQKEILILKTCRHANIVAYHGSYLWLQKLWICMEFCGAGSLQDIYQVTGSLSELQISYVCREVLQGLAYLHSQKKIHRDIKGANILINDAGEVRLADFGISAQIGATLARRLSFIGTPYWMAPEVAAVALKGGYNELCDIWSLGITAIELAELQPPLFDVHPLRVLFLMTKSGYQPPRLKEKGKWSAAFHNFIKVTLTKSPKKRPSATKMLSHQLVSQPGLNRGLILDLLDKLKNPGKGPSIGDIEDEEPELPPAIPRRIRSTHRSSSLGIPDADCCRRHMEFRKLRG
In words: HPK1 Human STE Kinase Enzymatic Radiometric Assay. As to conditions: read-out: HPK1 IC50 nM Range*. The class given is biochemical. On the procedure: A stock solution of 10 mM of test compound is prepared in DMSO. The compound plate was prepared by 3-fold and 9-point serial dilutions. […] The reaction is initiated by The addition of the Mg/ATP mix. After incubation for 40 minutes at RT, the reaction is stopped by the addition of phosphoric acid to a concentration of 0.5%.

A further test addresses Lck (h) (Homo sapiens, UniProt P06239). In words: Lck Human  Kinase Enzymatic Radiometric Assay. As to conditions: read-out: Lck IC50 nM Range*. In kind it is biochemical. Put shortly:
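Substrate 33P-incorporation measured by scintillation counting after spotting on P30 filtermat and phosphoric acid washes. Human Lck reacted 40 min at RT in 50 mM Tris pH 7.5 with 10 mM MgAcetate, [gamma-33P]-ATP, 250 uM Cdc2 peptide, 0.1 mM EGTA and 0.1 mM Na3VO4.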

Lck (h), sequence (P06239 whole entry): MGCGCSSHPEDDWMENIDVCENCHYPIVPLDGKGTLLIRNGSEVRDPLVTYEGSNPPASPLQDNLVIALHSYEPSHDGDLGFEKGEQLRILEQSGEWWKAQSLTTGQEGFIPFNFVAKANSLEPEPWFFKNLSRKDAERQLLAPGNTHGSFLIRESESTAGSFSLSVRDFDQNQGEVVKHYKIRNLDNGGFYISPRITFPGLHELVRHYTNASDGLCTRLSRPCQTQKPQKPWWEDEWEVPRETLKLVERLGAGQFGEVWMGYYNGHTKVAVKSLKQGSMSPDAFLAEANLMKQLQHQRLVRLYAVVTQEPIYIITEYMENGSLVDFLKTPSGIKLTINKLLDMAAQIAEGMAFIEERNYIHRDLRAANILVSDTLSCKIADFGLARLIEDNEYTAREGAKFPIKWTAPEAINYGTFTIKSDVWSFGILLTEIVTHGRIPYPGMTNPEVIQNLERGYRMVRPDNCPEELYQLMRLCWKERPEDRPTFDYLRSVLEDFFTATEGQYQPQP

For the compound `Nc1nc(F)c(-c2ccc3c(c2)OCCCO3)cc1-c1ccc2c(c1)CCNC2=O` [I-204, 6-(2-amino-5-(3,4-dihydro-2H-benzo[b][1,4]dioxepin-7-yl)-6-fluoropyridin-3-yl)-3,4-dihydroisoquinolin-1(2H)-one], the results for the IC50 (in test [1]; on Lck (h)) were 0.1 to 10 nM and more than 1000 nM, respectively.
Regarding `Nc1nc(F)c(-c2ccc3c(c2)C(=O)CC2(CCN(CC(F)(F)F)CC2)O3)cc1-c1ccc2c(c1)CCNC2=O` [I-196, 6-(6-amino-2-fluoro-5-(1-oxo-1,2,3,4-tetrahydroisoquinolin-6-yl)pyridin-3-yl)-1′-(2,2,2-trifluoroethyl)spiro[chromane-2,4′-piperidin]-4-one], the IC50 in test [1] was 0.1 to 10 nM; at Lck (h), more than 1000 nM.
Regarding `COc1cc(OC2CCNCC2)ccc1-c1cc(-c2ccc3c(c2)CCNC3=O)c(N)nc1F` [I-150, 6-(2-amino-6-fluoro-5-(2-methoxy-4-(piperidin-4-yloxy)phenyl)pyridin-3-yl)-3,4-dihydroisoquinolin-1(2H)-one], the IC50 was 11 to 100 nM in test [1] and more than 1000 nM on Lck (h).
With `Nc1nc(F)c(-c2cnn(C3CCOCC3)c2)cc1-c1ccc2c(c1)CCNC2=O` [I-55, 6-(2-amino-6-fluoro-5-(1-(tetrahydro-2H-pyran-4-yl)-1H-pyrazol-4-yl)pyridin-3-yl)-3,4-dihydroisoquinolin-1(2H)-one], the 50% inhibitory concentration (IC50) in test [1] is 0.1 to 10 nM; on Lck (h), more than 1000 nM.
For the compound `CCN(C)Cc1nc(-c2cc(-c3ccc4c(c3)CCNC4=O)c(N)nc2F)ccc1N1CCOCC1` [I-580, 6-(6′-amino-6-((ethyl(methyl)amino)methyl)-2′-fluoro-5-morpholino-[2,3′-bipyridin]-5′-yl)-3,4-dihydroisoquinolin-1(2H)-one], the results for the IC50 (in test [1]; at Lck (h)) were 0.1 to 10 nM and more than 1000 nM, respectively.
On to `CN1CCN(c2ccc(-c3cc(-c4ccc5c(c4)CCNC5=O)c(N)nc3Cl)cc2)CC1` [I-74, 6-(2-amino-6-chloro-5-(4-(4-methylpiperazin-1-yl)phenyl)pyridin-3-yl)-3,4-dihydroisoquinolin-1(2H)-one], for which the IC50 in test [1] is 11 to 100 nM; at Lck (h), more than 1000 nM.
Regarding `CC(C)N1CCC[C@H](Oc2ccc(-c3cc(-c4ccc5c(c4)CCNC5=O)c(N)nc3F)cc2)C1` [I-274, (S)-6-(2-amino-6-fluoro-5-(4-((1-isopropylpiperidin-3-yl)oxy)phenyl)pyridin-3-yl)-3,4-dihydroisoquinolin-1(2H)-one], the IC50 in test [1] is 0.1 to 10 nM; at Lck (h), more than 1000 nM.
As to `CC(C)[C@H]1CN(c2ccc(-c3cnc(N)c(-c4ccc5c(c4)CCNC5=O)c3F)c(F)c2)CCO1` [I-7, (S)-6-(2-amino-4-fluoro-5-(2-fluoro-4-(2-isopropylmorpholino)phenyl)pyridin-3-yl)-3,4-dihydroisoquinolin-1(2H)-one], the figures for the IC50 (in test [1]; at Lck (h)) were 101 to 1000 nM and more than 1000 nM, respectively.
Regarding `CS(=O)(=O)[C@H]1CCN(c2ccc(-c3cc(-c4ccc5c(c4)CCNC5=O)c(N)nc3F)cc2)C1` [I-117, (S)-6-(2-amino-6-fluoro-5-(4-(3-(methylsulfonyl)pyrrolidin-1-yl)phenyl)pyridin-3-yl)-3,4-dihydroisoquinolin-1(2H)-one], the values for the IC50 (in test [1]; on Lck (h)) were 0.1 to 10 nM and more than 1000 nM, respectively.
Taken in the same sequence, the figures for `Nc1nc(F)c(-c2ccc3c(c2)CCNC3)cc1-c1cc2c(cc1F)C(=O)NCC2` [I-287, 2,2,2-trifluoroacetate] were 0.1 to 10 nM and more than 1000 nM.
Take `Nc1nc(F)c(-c2ccc(N3CCN(CC4CC4)CC3)cc2)cc1-c1cc2cc[nH]c(=O)c2cc1F` [I-376, 6-(2-amino-5-(4-(4-(cyclopropylmethyl)piper-azin-1-yl)phenyl)-6-fluoropyridin-3-yl)-7-fluoroisoquinolin-1(2H)-one]: the IC50 in test [1] was 0.1 to 10 nM; on Lck (h), more than 1000 nM.
Taken in the same sequence, the figures for `C[C@H](C1CC1)N1CCN(c2ccc(-c3cc(-c4cc(F)c5c(=O)[nH]ccc5c4)c(N)nc3F)cc2)CC1` [I-391, (R)-6-(2-amino-5-(4-(4-(1-cyclopropylethyl)piperazin-1-yl)phenyl)-6-fluoropyridin-3-yl)-8-fluoroisoquinolin-1(2H)-one] were 0.1 to 10 nM and 101 to 1000 nM.
Consider `CN1CCN(C2(c3ccc(-c4cc(-c5ccc6c(c5)CCNC6=O)c(N)nc4F)cc3)CC2)CC1` [I-260, 6-(2-amino-6-fluoro-5-(4-(1-(4-methylpiperazin-1-yl)cyclopropyl)phenyl)pyridin-3-yl)-3,4-dihydroisoquinolin-1(2H)-one], for which the IC50 in test [1] was 11 to 100 nM; on Lck (h), more than 1000 nM.
`Nc1nc(F)c(-c2ccc(N3CCNCC3)c(C(F)(F)F)c2)cc1-c1ccc2c(c1)CCNC2=O` [I-185, 6-(2-amino-6-fluoro-5-(4-(piperazin-1-yl)-3-(trifluoromethyl)phenyl)pyridin-3-yl)-3,4-dihydroisoquinolin-1(2H)-one]: the values for the IC50 (in test [1]; on Lck (h)) were 0.1 to 10 nM and more than 1000 nM, respectively.
On the same counts, the results for `CC(C)N1CCN(c2ccc(-c3cc(-c4cc5c(cc4F)C(=O)NCC5)c(N)nc3F)nc2)CC1` [I-170, 6-(6′-amino-2′-fluoro-5-(4-isopropylpiperazin-1-yl)-[2,3′-bipyridin]-5′-yl)-7-fluoro-3,4-dihydroisoquinolin-1(2H)-one] are 0.1 to 10 nM and more than 1000 nM.
As for `CN1C[C@H]2C[C@@]2(c2ccc(-c3cc(-c4ccc5c(c4)CCNC5=O)c(N)nc3F)cc2)C1` [I-14, 6-(2-amino-6-fluoro-5-(4-((1R,5S)-3-methyl-3-azabicyclo[3.1.0]hexan-1-yl)phenyl)pyridin-3-yl)-3,4-dihydroisoquinolin-1(2H)-one], the IC50 in test [1] is 0.1 to 10 nM; on Lck (h), more than 1000 nM.
As to `CCN1CCN(c2ccc(-c3cc(-c4ccc5c(c4)CC(C)(C)NC5=O)c(N)nc3F)cc2)CC1` [I-70, 6-(2-amino-5-(4-(4-ethylpiperazin-1-yl)phenyl)-6-fluoropyridin-3-yl)-3,3-dimethyl-3,4-dihydroisoquinolin-1(2H)-one 2,2,2-trifluoroacetate], the IC50 in test [1] is 11 to 100 nM; on Lck (h) it was more than 1000 nM.
Turning to `Nc1nc(F)c(-c2ccc(N3CCN(CC4CC4)CC3)cc2)cc1-c1cc2c(cn1)C(=O)NCC2` [I-400, 6-(2-amino-5-(4-(4-(cyclopropylmethyl)piper-azin-1-yl)phenyl)-6-fluoropyridin-3-yl)-3,4-dihydro-2,7-naphthyridin-1(2H)-one], the IC50 in test [1] lay in the range of 0.1 to 10 nM; at Lck (h), 101 to 1000 nM.
Consider `CO[C@H](C)CN1CCN(c2ccc(-c3cc(-c4ccc5c(c4)CCNC5=O)c(N)nc3F)cc2)CC1` [I-25, (R)-6-(2-amino-6-fluoro-5-(4-(4-(2-methoxypropyl)piperazin-1-yl)phenyl)pyridin-3-yl)-3,4-dihydroisoquinolin-1(2H)-one], for which the values for the IC50 (in test [1]; on Lck (h)) were 0.1 to 10 nM and more than 1000 nM, respectively.
Consider `Nc1nc(F)c(-c2ccc(C3=CCN(CCO)C3)cc2)cc1-c1ccc2c(c1)CCNC2=O` [I-123, 6-(2-amino-6-fluoro-5-(4-(1-(2-hydroxyethyl)-2,5-dihydro-1H-pyrrol-3-yl)phenyl)pyridin-3-yl)-3,4-dihydroisoquinolin-1(2H)-one], for which the half-maximal inhibitory concentration (IC50) in test [1] was 0.1 to 10 nM; on Lck (h), more than 1000 nM.
As for `Nc1nc(F)c(-c2ccc(N3CCN(CC4CC4)CC3)cc2)cc1-c1cc(F)c2c(=O)[nH]cnc2c1` [I-407, 7-(2-amino-5-(4-(4-(cyclopropylmethyl)piper-azin-1-yl)phenyl)-6-fluoropyridin-3-yl)-5-fluoroquinazolin-4(3H)-one], the 50% inhibitory concentration (IC50) in test [1] was 0.1 to 10 nM; on Lck (h), more than 1000 nM.
With `Cc1cc2cc(-c3cc(-c4ccc(N5CCN(CC6CC6)CC5)cc4)c(F)nc3N)cc(F)c2c(=O)[nH]1` [I-454, 6-(2-amino-5-(4-(4-(cyclopropylmethyl)piperazin-1-yl)phenyl)-6-fluoropyridin-3-yl)-8-fluoro-3-methylisoquinolin-1(2H)-one], the IC50 was 0.1 to 10 nM in test [1] and more than 1000 nM at Lck (h).
With `CC(C)N1C[C@H]2C[C@@]2(c2ccc(-c3cc(-c4cc(F)c5c(c4)CCNC5=O)c(N)nc3F)cc2)C1` [I-301, 6-(2-amino-6-fluoro-5-(4-((1R,5S)-3-isopropyl-3-azabicyclo[3.1.0]hexan-1-yl)phenyl)pyridin-3-yl)-8-fluoro-3,4-dihydroisoquinolin-1(2H)-one], the IC50 was 0.1 to 10 nM in test [1] and more than 1000 nM at Lck (h).
Turning to `CN1CCCN(S(=O)(=O)c2ccc(-c3cc(-c4ccc5c(c4)CCNC5=O)c(N)nc3F)cc2)CC1` [I-206, 6-(2-amino-6-fluoro-5-(4-((4-methyl-1,4-diazepan-1-yl)sulfonyl)phenyl)pyridin-3-yl)-3,4-dihydroisoquinolin-1(2H)-one], the IC50 is 0.1 to 10 nM in test [1] and more than 1000 nM on Lck (h).
With `CN1CCN(C(=O)c2ccc(-c3cc(-c4ccc5c(c4)CCNC5=O)c(N)nc3F)cc2)CC1` [I-259, 6-(2-amino-6-fluoro-5-(4-(4-methylpiperazine-1-carbonyl)phenyl)pyridin-3-yl)-3,4-dihydroisoquinolin-1(2H)-one], the IC50 in test [1] is 11 to 100 nM; at Lck (h), more than 1000 nM.
